Laboratory results as given in patent US12486267B2, “Imidazo[1,2-A]pyridine and [1,2,4]triazolo[1,5-A]pyridine derivatives as TLR9 inhibitors for the treatment of fibrosis” (BRISTOL-MYERS SQUIBB COMPANY, priority 2020, dated 2025).

Experiments:
Assay type in all cases: cell-based
human TLR9 = target: T1, human TLR9 (Homo sapiens, UniProt Q9NR96); test: TLR9 inhibition reporter assay (HEK-Blue cells, SEAP reporter); settings: HEK-Blue cells overexpressing human TLR9; stimulated with ODN2006 5 nM; 22 hour incubation; SEAP readout
T1 sequence (Q9NR96 26-1032): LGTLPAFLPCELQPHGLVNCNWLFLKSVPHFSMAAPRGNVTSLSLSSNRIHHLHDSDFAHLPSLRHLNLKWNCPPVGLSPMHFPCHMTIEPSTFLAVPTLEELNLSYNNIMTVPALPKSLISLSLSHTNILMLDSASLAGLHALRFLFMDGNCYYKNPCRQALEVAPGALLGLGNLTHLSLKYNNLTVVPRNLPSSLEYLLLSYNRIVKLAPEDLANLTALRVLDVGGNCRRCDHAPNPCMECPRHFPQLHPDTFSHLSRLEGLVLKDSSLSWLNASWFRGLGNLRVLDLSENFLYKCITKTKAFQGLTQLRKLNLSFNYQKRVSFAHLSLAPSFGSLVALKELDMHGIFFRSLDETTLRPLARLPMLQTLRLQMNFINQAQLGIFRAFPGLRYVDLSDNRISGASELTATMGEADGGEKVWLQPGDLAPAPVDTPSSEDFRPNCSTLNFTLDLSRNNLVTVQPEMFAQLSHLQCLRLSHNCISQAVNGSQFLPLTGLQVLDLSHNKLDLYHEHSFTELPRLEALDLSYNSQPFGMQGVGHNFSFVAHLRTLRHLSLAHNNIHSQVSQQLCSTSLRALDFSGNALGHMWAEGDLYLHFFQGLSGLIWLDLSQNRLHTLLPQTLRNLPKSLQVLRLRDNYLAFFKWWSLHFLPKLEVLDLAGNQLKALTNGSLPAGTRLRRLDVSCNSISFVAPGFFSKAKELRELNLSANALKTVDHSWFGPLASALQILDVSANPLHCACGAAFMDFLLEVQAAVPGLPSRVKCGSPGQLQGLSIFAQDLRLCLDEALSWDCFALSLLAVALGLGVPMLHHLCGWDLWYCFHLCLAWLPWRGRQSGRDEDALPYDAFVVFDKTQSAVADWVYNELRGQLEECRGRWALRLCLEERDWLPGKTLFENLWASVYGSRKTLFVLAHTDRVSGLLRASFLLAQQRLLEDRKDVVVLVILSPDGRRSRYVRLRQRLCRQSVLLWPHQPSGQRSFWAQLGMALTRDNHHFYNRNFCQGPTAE
How it was run: (§1)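 HEK-Blue cells with an NF-κB/AP-1-driven SEAP reporter were pre-treated 30 min at room temperature with compound (0.05 nM–50 μM), then stimulated with gardiquimod 7.5 μM (TLR7), R848 15.9 μM (TLR8) or ODN2006 5 nM (TLR9). After 22 h at 37 °C, SEAP was read; % inhibition was referenced to agonist+DMSO and known-inhibitor wells.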

human TLR8 = target: T2, human TLR8 (Homo sapiens, UniProt Q9NR97); test: TLR8 inhibition reporter assay (HEK-Blue cells, SEAP reporter); settings: HEK-Blue cells overexpressing human TLR8; stimulated with R848 15.9 μM; 22 hour incubation; SEAP readout
T2 sequence (Q9NR97 27-1041): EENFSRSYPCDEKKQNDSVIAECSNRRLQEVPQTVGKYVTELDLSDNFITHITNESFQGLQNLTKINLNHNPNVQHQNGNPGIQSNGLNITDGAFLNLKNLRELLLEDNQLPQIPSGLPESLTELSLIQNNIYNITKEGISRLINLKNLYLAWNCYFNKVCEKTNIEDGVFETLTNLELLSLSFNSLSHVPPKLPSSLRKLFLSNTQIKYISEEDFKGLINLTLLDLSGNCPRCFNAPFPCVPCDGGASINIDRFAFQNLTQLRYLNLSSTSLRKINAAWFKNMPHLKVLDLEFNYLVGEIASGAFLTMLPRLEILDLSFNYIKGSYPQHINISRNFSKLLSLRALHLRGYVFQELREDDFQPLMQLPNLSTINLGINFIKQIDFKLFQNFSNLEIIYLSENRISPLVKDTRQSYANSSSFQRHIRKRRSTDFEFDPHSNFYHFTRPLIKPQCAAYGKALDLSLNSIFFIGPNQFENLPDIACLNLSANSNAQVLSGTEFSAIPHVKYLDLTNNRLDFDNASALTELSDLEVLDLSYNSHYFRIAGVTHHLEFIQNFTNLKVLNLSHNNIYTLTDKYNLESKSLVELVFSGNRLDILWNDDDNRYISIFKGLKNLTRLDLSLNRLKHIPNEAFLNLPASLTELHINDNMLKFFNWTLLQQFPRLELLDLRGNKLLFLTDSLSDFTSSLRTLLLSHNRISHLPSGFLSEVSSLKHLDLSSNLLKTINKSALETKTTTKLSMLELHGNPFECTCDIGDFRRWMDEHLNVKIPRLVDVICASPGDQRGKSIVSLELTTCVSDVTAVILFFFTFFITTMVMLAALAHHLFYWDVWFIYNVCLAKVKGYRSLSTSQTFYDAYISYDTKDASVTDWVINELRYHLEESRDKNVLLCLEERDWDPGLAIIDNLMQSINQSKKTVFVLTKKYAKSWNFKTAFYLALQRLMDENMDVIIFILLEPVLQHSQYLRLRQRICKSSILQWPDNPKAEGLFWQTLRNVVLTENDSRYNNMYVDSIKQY
How it was run: as §1

human TLR7 = target: T3, human TLR7 (Homo sapiens, UniProt Q9NYK1); test: TLR7 inhibition reporter assay (HEK-Blue cells, SEAP reporter); settings: HEK-Blue cells overexpressing human TLR7; stimulated with gardiquimod 7.5 μM; 22 hour incubation; SEAP readout
T3 sequence (Q9NYK1 27-1049): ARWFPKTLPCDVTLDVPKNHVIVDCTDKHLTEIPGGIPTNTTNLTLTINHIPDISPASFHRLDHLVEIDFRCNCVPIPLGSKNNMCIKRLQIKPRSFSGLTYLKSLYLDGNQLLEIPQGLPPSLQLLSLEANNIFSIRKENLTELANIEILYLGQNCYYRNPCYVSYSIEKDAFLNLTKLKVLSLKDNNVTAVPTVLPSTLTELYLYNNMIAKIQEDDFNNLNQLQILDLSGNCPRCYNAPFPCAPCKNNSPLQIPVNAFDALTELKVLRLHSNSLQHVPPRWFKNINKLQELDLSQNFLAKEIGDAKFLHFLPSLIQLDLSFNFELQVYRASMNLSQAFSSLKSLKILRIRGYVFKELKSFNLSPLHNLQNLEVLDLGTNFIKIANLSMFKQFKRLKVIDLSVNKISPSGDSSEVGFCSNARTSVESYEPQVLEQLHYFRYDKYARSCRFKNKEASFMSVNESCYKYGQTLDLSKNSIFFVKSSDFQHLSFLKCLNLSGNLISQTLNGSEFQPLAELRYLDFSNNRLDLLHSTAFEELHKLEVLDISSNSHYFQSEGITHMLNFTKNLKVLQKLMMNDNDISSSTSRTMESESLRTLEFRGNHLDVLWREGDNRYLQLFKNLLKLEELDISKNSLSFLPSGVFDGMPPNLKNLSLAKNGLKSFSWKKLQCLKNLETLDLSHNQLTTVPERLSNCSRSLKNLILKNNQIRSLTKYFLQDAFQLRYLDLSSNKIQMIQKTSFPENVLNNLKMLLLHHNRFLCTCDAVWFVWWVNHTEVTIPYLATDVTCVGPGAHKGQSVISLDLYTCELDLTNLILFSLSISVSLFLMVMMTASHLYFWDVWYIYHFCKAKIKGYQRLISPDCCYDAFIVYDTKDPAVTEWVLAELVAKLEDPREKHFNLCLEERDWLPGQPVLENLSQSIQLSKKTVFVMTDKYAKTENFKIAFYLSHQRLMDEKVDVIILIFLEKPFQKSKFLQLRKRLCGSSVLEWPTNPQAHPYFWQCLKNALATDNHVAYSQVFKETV
How it was run: as §1

COc1ccc(-c2cn3cc(C4CCN(C5CC6CCC(C5)N6CC(C)C)CC4)cc(C)c3n2)cc1OC (single isomer, unassigned) [Example 19, 2-(3,4-dimethoxyphenyl)-6-(1-(8-isobutyl-8-azabicyclo[3.2.1]octan-3-yl)piperidin-4-yl)-8-methylimidazo[1,2-a]pyridine]
IC50 (human TLR9): 0.058 µM
IC50 (human TLR8): > 50 µM
IC50 (human TLR7): 2.4 µM

CS(=O)(=O)c1ccc(-c2cn3cc(C4CCN(C5CCN(C6CCOCC6)CC5)CC4)cc(F)c3n2)cc1 [Example 112, 8-fluoro-2-(4-(methylsulfonyl)phenyl)-6-(1′-(tetrahydro-2H-pyran-4-yl)-[1,4′-bipiperidin]-4-yl)imidazo[1,2-a]pyridine]
IC50 (human TLR9): 0.098 µM
IC50 (human TLR8): > 50 µM
IC50 (human TLR7): 4.5 µM

CC(C)N1C2CCC1CC(N1CCC(c3cc(F)c4nc(-c5ccc(S(C)(=O)=O)cc5)cn4c3)CC1)C2 (single isomer, unassigned) [Example 68, 8-fluoro-6-(1-(8-isopropyl-8-azabicyclo[3.2.1]octan-3-yl)piperidin-4-yl)-2-(4-(methylsulfonyl)phenyl)imidazo[1,2-a]pyridine]
IC50 (human TLR9): 0.11 µM
IC50 (human TLR8): > 50 µM
IC50 (human TLR7): 8.2 µM

CC(C)CN1C2CCC1CC(N1CCC([C@H]3CCc4nc(-c5ccc(S(C)(=O)=O)cc5)cn4C3)CC1)C2 (single isomer, unassigned) [Example 79]
IC50 (human TLR9): 0.171 µM
IC50 (human TLR8): 16.7 µM
IC50 (human TLR7): 16.7 µM

CC(C)N1C2CCC1CC(N1CCC(c3cc(F)c4nc(-c5ccc(S(C)(=O)=O)cc5)cn4c3)CC1)C2 (single isomer, unassigned) [Example 69, 8-fluoro-6-(1-(8-isopropyl-8-azabicyclo[3.2.1]octan-3-yl)piperidin-4-yl)-2-(4-(methylsulfonyl)phenyl)imidazo[1,2-a]pyridine]
IC50 (human TLR9): 0.026 µM
IC50 (human TLR8): > 50 µM
IC50 (human TLR7): 3.4 µM

Cc1cc(-c2ccc(N3CCN(C4COC4)CC3)cc2)cn2cc(-c3ccc(S(C)(=O)=O)cc3)nc12 [Example 103, 8-methyl-2-(4-(methylsulfonyl)phenyl)-6-(4-(4-(oxetan-3-yl)piperazin-1-yl)phenyl)imidazo[1,2-a]pyridine]
IC50 (human TLR9): 9.2 µM
IC50 (human TLR8): > 50 µM
IC50 (human TLR7): 38.5 µM

Cc1cc(-c2ccc(N3CCN(C(C)C)CC3)cc2)cn2cc(-c3ccc(S(C)(=O)=O)cc3)nc12 [Example 65, 6-(4-(4-isopropylpiperazin-1-yl)phenyl)-8-methyl-2-(4-(methylsulfonyl)phenyl) imidazo[1,2-a]pyridine]
IC50 (human TLR9): 0.67 µM
IC50 (human TLR8): > 50 µM
IC50 (human TLR7): 4.8 µM

COc1ccc(-c2cn3c(n2)CCC(C2CCN(C4CCN(CC5CC5)CC4)CC2)C3)cc1OC (single isomer, unassigned) [Example 57, 6-(1′-(cyclopropylmethyl)-[1,4′-bipiperidin]-4-yl)-2-(3,4-dimethoxyphenyl)-5,6,7,8-tetrahydroimidazo[1,2-a]pyridine]
IC50 (human TLR9): 0.036 µM
IC50 (human TLR8): > 50 µM
IC50 (human TLR7): 4.2 µM

Cc1cc(C2CCN(C3CCN(C4CC4)CC3)CC2)cn2cc(-c3ccc(S(C)(=O)=O)cc3)nc12 [Example 7, 6-(1′-cyclopropyl-[1,4′-bipiperidin]-4-yl)-8-methyl-2-(4-(methylsulfonyl)phenyl) imidazo[1,2-a]pyridine]
IC50 (human TLR9): 0.132 µM
IC50 (human TLR8): > 50 µM
IC50 (human TLR7): 7.8 µM

COc1ccc(-c2cn3c(n2)CCC(C2CCN(C4CCN(CC(C)C)CC4)CC2)C3)cc1OC (single isomer, unassigned) [Example 33, 2-(3,4-dimethoxyphenyl)-6-(1′-isobutyl-[1,4′-bipiperidin]-4-yl)-5,6,7,8-tetrahydroimidazo[1,2-a]pyridine]
IC50 (human TLR9): 0.056 µM
IC50 (human TLR8): > 50 µM
IC50 (human TLR7): 3.1 µM

COc1ccc(-c2cn3c(n2)CC[C@H](C2CCN(C4CC5CCC(C4)N5CC(C)C)CC2)C3)cc1OC (single isomer, unassigned) [Example 76]
IC50 (human TLR9): 0.052 µM
IC50 (human TLR8): > 25 µM
IC50 (human TLR7): 1.6 µM

COc1ccc(-c2cn3c(n2)CC[C@@H](C2CCN(C4CC5CCC(C4)N5CC(C)C)CC2)C3)cc1OC (single isomer, unassigned) [Example 77]
IC50 (human TLR9): 0.064 µM
IC50 (human TLR8): > 25 µM
IC50 (human TLR7): 3.6 µM

CS(=O)(=O)c1ccc(-c2cn3cc(C4CCN(C5CC6CCC(C5)N6CC5CC5)CC4)cc(F)c3n2)cc1 (single isomer, unassigned) [Example 116, 6-(1-(8-(cyclopropylmethyl)-8-azabicyclo[3.2.1]octan-3-yl)piperidin-4-yl)-8-fluoro-2-(4-(methylsulfonyl)phenyl)imidazo[1,2-a]pyridine]
IC50 (human TLR9): 0.0039 µM
IC50 (human TLR8): 14 µM
IC50 (human TLR7): 0.7 µM

CS(=O)(=O)c1ccc(-c2cn3cc(C4CCN(C5CCN(C6CCC6)CC5)CC4)cc(F)c3n2)cc1 [Example 110, 6-(1′-cyclobutyl-[1,4′-bipiperidin]-4-yl)-8-fluoro-2-(4-(methylsulfonyl)phenyl) imidazo[1,2-a]pyridine]
IC50 (human TLR9): 0.0046 µM
IC50 (human TLR8): > 50 µM
IC50 (human TLR7): 2.4 µM
